{"source": "patent US20080255238A1", "about": "“COMPOSITION CONTAINING A THIOUREA DERIVATIVE FOR PREVENTING OR TREATING PRURITIC OR IRRITANT SKIN DISEASES” (AMOREPACIFIC CORPORATION, priority 2004, published 2008)", "key": {"[1]": {"tested_on": "ICR mice", "assay": "Itching induced by histamine in ICR mice, oral administration", "format": "in vivo", "settings": "for % Inhibition (mean ± SE): scratching frequency over 30 min, histamine 100 nmol/mouse i.d. 1 h after dosing", "from_the_text": "Itching Induced by Histamine in ICR Mice\nIt is known that the itching response induced by histamine in rodents is generally weaker than that in humans (Kuraishi et al., 1995, Eur. J. Pharmacol. 275, pp 229-233). However, it is known that uniquely, ICR mice sensitively respond to histamine, and this leads to itching response (Maekawa et al., 2000, Jpn. J. Pharmacol. 84, pp 462-466). As is widely known, histamines are representative itching mediators and obviously induce itching in human subjects (Simone et al., 1987, Somatosens. Res. 5, pp 81-92). In this experiment, ICR mice received […]. One day before the experiment, the rostral part of the skin on the back of male ICR mice (28˜32 g, 5˜8 mice/group was clipped. The mice were fasted for 18 hours before experimentation. The drug (compound 1, 0.5 ml/mouse) was dissolved in hydroxypropyl-β-cyclodextrin (HP-β-CD; Mitsubishi Ltd., Japan), and then orally administered to the mice. One hour after the administration, histamine (100 nmol/50 μl/mouse) was dissolved in a physiological saline solution and injected intradermally into the back skin of mice. Immediately after the injection, the mice were placed in a transparent cage, and then the frequency of scratching of the injected site by the hind paws was counted for 30 minutes. The frequency of scratching in test groups administered with the drug was compared to that in a control group administered with histamine alone. The decrease in the frequency of scratching in the test groups was determined as an index of inhibitory effects on itching. The decrease in the frequency of scratching was expressed as a percentage of inhibition to determine inhibitory effects of each compound on itching."}, "[2]": {"tested_on": "New Zealand white rabbits", "assay": "Inhibition of skin irritation induced by retinoic acid in New Zealand white rabbits, topical administration", "format": "in vivo", "from_the_text": "Inhibition of Skin Irritation Induced by Retinoic Acid in New Zealand White Rabbits\nHowever, it is known that retinoic acid causes irritation in its initial stage of use and further causes side effects, such as skin erythema and edema, when topically applied to the skin (Varani et al., 2003, Arch. Dermatol. Res., 295, pp 255-262). A number of attempts to reduce the skin irritation induced by retinoic acid have been made in many directions (Kim et al., 2003, Toxicol. Letters., 146, pp 65-73). […] In this experiment, New Zealand white rabbits received retinoic acid to cause skin irritation. One day before the experiment, hairs around the back of four male New Zealand white rabbits (2.0˜2.5 kg) were shaved. Four application sites, which are symmetrical by two (i.e. right upper-site-left upper site and right lower site-left lower site), were marked at the shaved back of each rabbit. 100 μl of 0.025% retinoic acid (Sigma, U.S.A.) was topically applied to all four-application sites. 30 minutes after the application, the two sites marked at the right were treated with the drug (compound 1, 1%/100 μl/each application site), and the two sites marked at the left were treated with a solvent (100 μl/each application site) alone. At this time, retinoic acid and the drug were dissolved in a mixed solution of PEG 400 and ethanol (7:3), and then topically applied twice daily for four consecutive days. On the fifth day, the application sites were visually observed to evaluate the degree of skin irritation. The degree of skin irritation was expressed in a cumulative irritation index. […] The cumulative irritation index was judged based on occurrence of erythema, and scored in accordance with the following criteria: Occurrence of no erythema (0), occurrence of slightly visible erythema (1), occurrence of distinct erythema (2), occurrence of distinct scarlet erythema (3), and occurrence of distinct crimson erythema and scaling (4)."}}}
{"smiles": "CC(C)(C)c1ccc(CNC(=S)NCc2ccc(NS(C)(=O)=O)c(F)c2)cc1", "note": "[Compound 1, 1-(4-t-butylbenzyl)-3-(3-fluoro-4-methanesulfonylaminobenzyl)thiourea]", "values": [{"measurement": "antipruritic effects (in words)", "setting": "[1]; histamine", "result": "potent anti-pruritic effects in a dose-dependent manner"}, {"measurement": "% Inhibition (mean ± SE)", "setting": "[1]; dose 10 mg/mouse", "result": "39.8 ± 18.1", "unit": "%"}, {"measurement": "% Inhibition (mean ± SE)", "setting": "[1]; dose 30 mg/mouse", "result": "46.7 ± 24.0", "unit": "%"}, {"measurement": "% Inhibition (mean ± SE)", "setting": "[1]; dose 100 mg/mouse", "result": "75.8 ± 26.9", "unit": "%"}, {"measurement": "% Inhibition (mean)", "setting": "[2]; decrease in cumulative irritation index vs retinoic acid + solvent, compound 1%, 100 μl/application site, topical, rabbits", "result": 40, "unit": "%"}, {"measurement": "Cumulative irritation index (mean ± SE)", "setting": "[2]; erythema score 0-4 on fifth day, retinoic acid 0.025% + compound 1%, 100 μl/application site, topical twice daily for four days, rabbits", "result": "1.88 ± 0.45"}, {"measurement": "inhibitory effects on skin irritation (in words)", "setting": "[2]; retinoic acid, New Zealand white rabbits, topical", "result": "inhibitory effects on skin irritation"}]}
